Experimental data: article PMC8640094, “Diaportones A–C: Three New Metabolites From Endophytic Fungus Diaporthe foeniculina BZM-15” (Frontiers in Chemistry, 2021)

Assays:
[1] = system: normal cell line LX-2; test: MTT cytotoxicity assay, normal cell line LX-2; type: cell-based; settings: 72 h; for inhibition at 1 µM: LX-2, c 1.00 μM; for inhibition at 1 µM / inhibition at 2 µM / inhibition at 4 µM / inhibition at 8 µM / inhibition at 16 µM / inhibition at 32 µM / inhibition at 64 µM / inhibition at 128 µM: three replicates; for inhibition at 2 µM: LX-2, c 2.00 μM; for inhibition at 4 µM: LX-2, c 4.00 μM; for inhibition at 8 µM: LX-2, c 8.00 μM; for inhibition at 16 µM: LX-2, c 16.00 μM; for inhibition at 32 µM: LX-2, c 32.00 μM; for inhibition at 64 µM: LX-2, c 64.00 μM; for inhibition at 128 µM: LX-2, c 128.00 μM; for IC50: MTT, mean ± SD (n = 3)
Method: (§1) The cytotoxicity of all compounds against three human tumor cell lines, SF-268 (CNS cancer), MCF-7 (breast cancer), and HepG2 (hepatoma cancer), and normal cell line LX-2 was tested using the MTT assay. […] All cells were seeded into 96-well plates at 5 × 10^4 cells/ml and incubated at 37°C under a 5% CO2 atmosphere for 24 h. Then, the tested compounds were added. After 72 h, MTT solution was added into each well, which was further incubated. The cell-free supernatant was removed and formazan crystals were subsequently dissolved in DMSO. Optical density (OD) was recorded at 490 nm on a microplate reader to calculate the IC50 values.

[2] = system: MCF-7 (breast cancer); test: MTT cytotoxicity assay, MCF-7 cells; type: cell-based, human; settings: Homo sapiens; for inhibition at 1 µM / inhibition at 2 µM / inhibition at 4 µM / inhibition at 8 µM / inhibition at 16 µM / inhibition at 32 µM / inhibition at 64 µM / inhibition at 128 µM: MCF7, 72 h, three replicates, read-out: cell inhibition; for inhibition at 1 µM: MCF-7, c 1.00 μM; for inhibition at 2 µM: MCF-7, c 2.00 μM; for inhibition at 4 µM: MCF-7, c 4.00 μM; for inhibition at 8 µM: MCF-7, c 8.00 μM; for inhibition at 16 µM: MCF-7, c 16.00 μM; for inhibition at 32 µM: MCF-7, c 32.00 μM; for inhibition at 64 µM: MCF-7, c 64.00 μM; for inhibition at 128 µM: MCF-7, c 128.00 μM; for IC50: MCF7, MTT, 72 h, mean ± SD (n = 3)
Method: as §1

[3] = system: HepG2 (hepatoma cancer); test: MTT cytotoxicity assay, HepG2 cells; type: cell-based, human; settings: Homo sapiens; for inhibition at 1 µM / inhibition at 2 µM / inhibition at 4 µM / inhibition at 8 µM / inhibition at 16 µM / inhibition at 32 µM / inhibition at 64 µM / inhibition at 128 µM: HepG2, 72 h, three replicates, read-out: cell inhibition; for inhibition at 1 µM: HepG2, c 1.00 μM; for inhibition at 2 µM: HepG2, c 2.00 μM; for inhibition at 4 µM: HepG2, c 4.00 μM; for inhibition at 8 µM: HepG2, c 8.00 μM; for inhibition at 16 µM: HepG2, c 16.00 μM; for inhibition at 32 µM: HepG2, c 32.00 μM; for inhibition at 64 µM: HepG2, c 64.00 μM; for inhibition at 128 µM: HepG2, c 128.00 μM; for IC50: HepG2, MTT, 72 h, mean ± SD (n = 3)
Method: (§2) The cytotoxicity of all compounds against three human tumor cell lines, SF-268 (CNS cancer), MCF-7 (breast cancer), and HepG2 (hepatoma cancer), and normal cell line LX-2 was tested using the MTT assay. Adriamycin was used as a positive control. All cells were seeded into 96-well plates at 5 × 10^4 cells/ml and incubated at 37°C under a 5% CO2 atmosphere for 24 h. Then, the tested compounds were added. After 72 h, MTT solution was added into each well, which was further incubated. The cell-free supernatant was removed and formazan crystals were subsequently dissolved in DMSO. Optical density (OD) was recorded at 490 nm on a microplate reader to calculate the IC50 values.

[4] = system: SF-268 (CNS cancer); test: MTT cytotoxicity assay, SF-268 cells; type: cell-based, human; settings: Homo sapiens; for inhibition at 1 µM / inhibition at 2 µM / inhibition at 4 µM / inhibition at 8 µM / inhibition at 16 µM / inhibition at 32 µM / inhibition at 64 µM / inhibition at 128 µM: SF-268, 72 h, SF268 cells, triplicate values, read-out: cell inhibition; for inhibition at 1 µM: c 1.00 μM; for inhibition at 2 µM: c 2.00 μM; for inhibition at 4 µM: c 4.00 μM; for inhibition at 8 µM: c 8.00 μM; for inhibition at 16 µM: c 16.00 μM; for inhibition at 32 µM: c 32.00 μM; for inhibition at 64 µM: c 64.00 μM; for inhibition at 128 µM: c 128.00 μM; for IC50: SF-268, MTT, 72 h, mean ± SD (n = 3), read-out: IC50 SF268
Method: as §2

| Structure (SMILES) | inhibition at 1 µM [1] [%] | inhibition at 2 µM [1] [%] | inhibition at 4 µM [1] [%] | inhibition at 8 µM [1] [%] | inhibition at 16 µM [1] [%] | inhibition at 32 µM [1] [%] | inhibition at 64 µM [1] [%] | inhibition at 128 µM [1] [%] | IC50 [1] [µM] | inhibition at 1 µM [2] [%] | inhibition at 2 µM [2] [%] | inhibition at 4 µM [2] [%] | inhibition at 8 µM [2] [%] | inhibition at 16 µM [2] [%] | inhibition at 32 µM [2] [%] | inhibition at 64 µM [2] [%] | inhibition at 128 µM [2] [%] | IC50 [2] [µM] | inhibition at 1 µM [3] [%] | inhibition at 2 µM [3] [%] | also measured |
| --- | --- | --- | --- | --- | --- | --- | --- | --- | --- | --- | --- | --- | --- | --- | --- | --- | --- | --- | --- | --- | --- |
| CC(C)[C@@H](C)/C=C/[C@@H](C)C1CCC2C3=CC(=O)OC4=CC(=O)CC[C@]4(C)C3CC[C@@]21C (stereo partly drawn) [compound 9, fortisterol] | 9.02 | 13.6 | 18.5 | 25.5 | 31.9 | 44.7 | 79.3 | 82.5 | > 40 | 6.87 | 14.1 | 17.4 | 21.5 | 31.4 | 43.2 | 76.1 | 86.4 | > 40 | 5.37 | 11.1 | inhibition at 4 µM [3]: 15.3%; inhibition at 8 µM [3]: 20.5%; inhibition at 16 µM [3]: 31.6%; inhibition at 32 µM [3]: 48.2%; inhibition at 64 µM [3]: 75.7%; inhibition at 128 µM [3]: 89.3%; IC50 [3]: > 40 µM; inhibition at 1 µM [4]: 8.97%; inhibition at 2 µM [4]: 14.6%; inhibition at 4 µM [4]: 19.2%; inhibition at 8 µM [4]: 24.9%; inhibition at 16 µM [4]: 30.3%; inhibition at 32 µM [4]: 45.1%; inhibition at 64 µM [4]: 80.5%; inhibition at 128 µM [4]: 82.4%; IC50 [4]: > 40 µM |
| C/C(=C\C=C\[C@]1(C)OC(=O)[C@@H](C)[C@@H]1O)[C@H](C)O [compound 2, colletolides A] | 4.42 | 5.31 | 11.3 | 19.3 | 24.4 | 40.4 | 79.4 | 80.5 | > 40 | 1.03 | 2.87 | 2.35 | 12.7 | 17.4 | 22.6 | 53.1 | 70.1 | > 40 | 2.57 | 3.48 | inhibition at 4 µM [3]: 7.34%; inhibition at 8 µM [3]: 14.6%; inhibition at 16 µM [3]: 19.4%; inhibition at 32 µM [3]: 27.5%; inhibition at 64 µM [3]: 60.5%; inhibition at 128 µM [3]: 75%; IC50 [3]: > 40 µM; inhibition at 1 µM [4]: 3.14%; inhibition at 2 µM [4]: 4.41%; inhibition at 4 µM [4]: 8.45%; inhibition at 8 µM [4]: 9.12%; inhibition at 16 µM [4]: 19.4%; inhibition at 32 µM [4]: 27.1%; inhibition at 64 µM [4]: 51.5%; inhibition at 128 µM [4]: 70.1%; IC50 [4]: > 40 µM |
| CCCC(O)C1=C(C)C(=O)C(C)C1 (stereo not drawn) [compound 3, diaportone B] | 6.32 | 5.31 | 11.4 | 20.6 | 28.3 | 34.8 | 50.5 | 70.2 | > 40 | 8.01 | 13.3 | 14.8 | 21.4 | 30.5 | 41.4 | 62.7 | 76.1 | > 40 | 8.12 | 14.3 | inhibition at 4 µM [3]: 19.2%; inhibition at 8 µM [3]: 25.3%; inhibition at 16 µM [3]: 30.6%; inhibition at 32 µM [3]: 42.1%; inhibition at 64 µM [3]: 54.8%; inhibition at 128 µM [3]: 75.3%; IC50 [3]: > 40 µM; inhibition at 1 µM [4]: 6.32%; inhibition at 2 µM [4]: 12%; inhibition at 4 µM [4]: 19.4%; inhibition at 8 µM [4]: 21.4%; inhibition at 16 µM [4]: 27.3%; inhibition at 32 µM [4]: 28.5%; inhibition at 64 µM [4]: 34.1%; inhibition at 128 µM [4]: 59.4%; IC50 [4]: > 40 µM |
| CC1(O)CC2OC23C(C)(C)C(Cl)CCC3(C)C1C(=O)O (stereo not drawn) [compound 6, altiloxin B] | 8.12 | 11.8 | 15.9 | 26.5 | 31.3 | 40.5 | 65 | 73.5 | > 40 | 1.37 | 4.01 | 8.56 | 13 | 18.9 | 24.3 | 59.3 | 66.4 | > 40 | 1.37 | 5.78 | inhibition at 4 µM [3]: 10.6%; inhibition at 8 µM [3]: 14.6%; inhibition at 16 µM [3]: 19.5%; inhibition at 32 µM [3]: 26.6%; inhibition at 64 µM [3]: 63.3%; inhibition at 128 µM [3]: 79.7%; IC50 [3]: > 40 µM; inhibition at 1 µM [4]: 3.44%; inhibition at 2 µM [4]: 5.06%; inhibition at 4 µM [4]: 7.23%; inhibition at 8 µM [4]: 9.25%; inhibition at 16 µM [4]: 12.9%; inhibition at 32 µM [4]: 22.6%; inhibition at 64 µM [4]: 49.5%; inhibition at 128 µM [4]: 60.3%; IC50 [4]: > 40 µM |
